From patent US6613797B2, “Xanthone analogs for treating infectious diseases and complexation of heme and porphyrins” (Interlab, Inc., priority 1999, dated 2003)
In brackets after ≈: the same amount, converted by molar mass. Read-outs that look alike come from different tables or passages of the source. Blank lines part the entries; values can stand above or below the compound they belong to.

Key:
[1] = system: Plasmodium falciparum D6 strain; test: in vitro anti-malarial activity, [3H]-ethanolamine incorporation method; format: cell-based; conditions: Plasmodium falciparum, D6; Table 1, reproduced from U.S. Pat. No. 5,977,077; read-out: IC50, μM vs. Plasmodium
Description: Cultures were maintained at 37° C. in a gas mixture of 5% oxygen, 5% CO2, and 90% nitrogen.
[^3H]-ethanolamine was obtained from American Radiolabeled Chemicals, Inc., St. Louis, Mo. Experiments were conducted in 96 well plates in a total volume of 200 μl at a final red blood cell concentration of 2% (v/v). An initial parasitemia of 0.2 to 0.5% was attained by addition of normal uninfected red cells. Radiolabeled ethanolamine was added after 48 hours of incubation and the experiment was terminated after 72 hours by collecting the cells onto glass fiber filters with an automated multiwell harvester.
Stock solutions of the various Formula X1 compounds were dissolved in DMSO at a concentration of 1 mM and diluted in complete medium (including 10% human serum) to provide 10X stock concentrations in the range of 1 to 10,000 nM.

[2] = system: Leishmania donovani; test: anti-Leishmania activity, promastigote radiolabeled thymidine uptake assay; format: cell-based
Description: Leishmania donovani was cultivated in Schneider's medium (Gibco, Grand Island, N.Y.) according to the methods described by Grogl et al. (1992). The in vitro susceptibility of L. donovani to Formula X1 compounds was determined using the radiolabeled thymidine uptake assay essentially as described by Grogl et al. (1992). Briefly, promastigotes were cultivated at 25° C. in Schneider's medium supplemented with 20% inactivated fetal calf serum and 100 μg/mL of gentamicin. Cells were maintained in log phase by seeding at 1×10^6/mL with subculturing when cultured densities approached 4×10^7/mL before reaching their maximal density. For the assay, early log phase promastigotes were counted on a hemacytometer and resuspended at a concentration of 1-2×10^6 cell/mL in assay media (Schneider's medium plus 10% fetal bovine serum). Ten-fold serial dilutions of each test compound were prepared as described above and added to 180 μL of the parasite suspension. After incubation for 24 hours at 25° C., methyl-^3H-thymidine was added to each sample for a final concentration of 1-2 μCi per well. Each sample was then incubated for an additional 18 hours prior to harvesting. After this incubation time, each sample was aspirated onto a filter mat, washed thoroughly with deionized water, dried and then counted in a scintillation counter with scintillation cocktail. […]

[3] = system: intracellular amastigotes of Leishmania mexicana M379; test: intracellular amastigote assay in infected murine macrophages; format: cell-based; conditions: Leishmania mexicana, Macrophage, read-out: IC50, anti-leishmanial activity
Description: Bone-marrow-derived macrophages (BALB/c) were cultured with L-cell-conditioned medium for 5-7 days at 35° C. After this period of incubation, mature macrophages were transferred to Labtek 4-chamber slides containing DMEM (Dulbecco's Modified Eagle's Medium) and 10% fetal calf serum. 50,000 cells were seeded in each chamber and allowed to attach overnight at 37° C. in a humidified incubator flushed with 5% CO2. On the next day the macrophages were infected at an MOI (Multiplicity of Infection) of 10:1 with stationary promastigotes of L. mexicana. After twenty-four hours, the medium was removed and fresh medium was added containing various drug concentrations (0-5 μM). Following incubation for an additional forty-eight hours, one set of slides were fixed in methanol, dried, and stained with Giemsa stain. Fresh medium and drug were added to a parallel set of chamber slides and incubated for another 48 hours before staining. […] Microscopic inspection permitted determination of % of infected macrophages and the number of amastigotes per 100 macrophages. The IC50 value is that concentration of drug that reduces the amastigote number by 50% relative to drug-free controls. Results also were obtained in parallel fashion with macrophages.
Intracellular amastigote studies. […] Because the amastigote stage is the only relevant clinical form of the parasites, we examined the activity of the nitrogenated xanthones against the heme-auxotrophic, intracellular amastigote form of L. mexicana. Stationary promastigotes of L. mexicana M379 rapidly invaded murine peritoneal macrophages obtained from BALB/c mice and incubated at 35° C. producing heavily burdened cells with 10 to 50 amastigotes per macrophage within 24 hours. An experiment was performed to investigate the ability of selected xanthones to reduce the number of intracellular amastigotes using this model. The IC50 value is that concentration of drug required to reduce the intracellular parasite burden by 50% relative to a drug-free control chamber. We tested the xanthone series against amastigote-infected murine peritoneal macrophages. Macrophages were seeded into Labtek chamber slides (25,000 per well/8 chamber slide) and allowed to incubate overnight in Dulbecco's Modified Eagle Medium (DMEM) supplemental with 10% fetal calf serum. On the next day the cells were infected with L. mexicana promastigotes at an MOI of 5:1 and then incubated for 24 hours at 35° C. After incubation, the monolayers were washed with buffer and medium containing varying concentrations of each xanthone (0 to 10 μM) was added to each chamber. After 48 hours of incubation (i.e., Day 3 of the experiment) one set of slides was removed, fixed with methanol, and stained with Giemsa. For another set of slides, we replenished the culture medium, added fresh drug to each well as appropriate, and then incubated the chambers for another 48 hours before staining with Giemsa. IC50 values were then averaged for 3 separate experiments and the results are presented in Table 4 and graphically in FIG. 7. […] The IC50 values recorded for C5 and C6 exposure for 96 hours of treatment were 6 nM and 2 nM.

[4] = system: malaria Plasmodium parasites; conditions: rufigallol combined with exifone; cited from earlier work
[5] = system: Leishmania donovani; conditions: Table 2; literature reported value; cited from earlier work

Compound: COc1c(O)cc2oc3cc(O)c(CC=C(C)C)c(O)c3c(=O)c2c1CC=C(C)C [Mangostin, reference compound]
- IC50 [1]: 5 µM
- IC50 ([2]; read-out: IC50 mg/ml for Leishmania): 0.00041 mg/mL (≈ 0.999 µM)
- IC50 [3]: 0.41 µg/mL
- IC50 ([3]; intracellular amastigote method): 1 µM

Compound: O=C1c2cc(O)c(O)c(O)c2C(=O)c2cc(O)c(O)c(O)c21 [rufigallol, 1,2,3,5,6,7,-hexahydroxy-9,10-anthraquinone]
- increase in potency against malaria Plasmodium parasites [4]: ~350 fold

- IC50 [1]: 50 µM
- IC50 ([2]; Table 2, read-out: IC50 mg/ml for Leishmania): > 0.05 mg/mL
Compound: O=c1c2cc(O)c(O)cc2oc2cc(O)c([C@@H]3O[C@H](CO)[C@@H](O)[C@H](O)[C@H]3O)c(O)c12 [Mangiferin, reference compound]

Compound: Stibogluconate [Stibogluconate [Sodium Antimony (V) Gluconate]]
- IC50 mg/ml for Leishmania [5]: 0.1 to 1.0 literature reported value mg/ml
